Laboratory results published in PubChem BioAssay AID1259408 (Genetic Toxicology Data Bank (GENE-TOX), 2018).
Activity calls are given as the source filed them. How the calls were made is not given here.

Test system: GENE-TOX genotoxicity assays, various organisms and cells
Test: GENE-TOX mutagenicity studies
Settings: for call: Assay Type: In vivo carcinogenicity studies, Assay Code: CCG+
Excerpt: GENE-TOX provides genetic toxicology (mutagenicity) test data from expert peer review of open scientific literature for more than 3,000 chemicals from the United States Environmental Protection Agency (EPA). GENE-TOX was established to select assay systems for evaluation, review data in the scientific literature, and recommend proper testing protocols and evaluation procedures for these systems.
GENE-TOX covers the years 1991 - 1998. It is no longer updated.
This is an archive assay for GENE-TOX mutagenicity studies.

[1] = Species/Cell Type: Escherichia coli polA (W3119 vs P3478), Assay Type: Rec-assay, DNA effects (bacterial DNA repair), Assay Code: RE1+, Evaluation Type: Evaluation A (Pre-1980)
[2] = Species/Cell Type: Nonhuman, Assay Type: Sister-chromatid exchange (SCE) in vitro, Assay Code: SC2+D, Dose Response: With dose response, Evaluation Type: Evaluation B (Post-1980)
[3] = Species/Cell Type: Salmonella typhimurium (one or more of the five standard strains: TA98, TA100, TA1535, TA1537, and TA1538), Assay Type: Histidine reverse gene mutation, Ames assay, Assay Code: SAL+, Evaluation Type: Evaluation A (Pre-1980)
[4] = Species/Cell Type: Syrian hamster embryo (SHE) cells, Assay Type: Cell transformation, clonal assay, Assay Code: CTC+, Evaluation Type: Evaluation A (Pre-1980)
[5] = Species/Cell Type: Drosophila melanogaster, Assay Type: Sex-linked recessive lethal gene mutation, Assay Code: SRL+, Evaluation Type: Evaluation A (Pre-1980)
[6] = Species/Cell Type: Saccharomyces cerevisiae, Assay Type: Mitotic recombination or gene conversion, Assay Code: YEC-, Evaluation Type: Evaluation A (Pre-1980)
[7] = Species/Cell Type: Salmonella typhimurium (one or more of the five standard strains: TA98, TA100, TA1535, TA1537, and TA1538), Assay Type: Histidine reverse gene mutation, Ames assay, Assay Code: SALT, Evaluation Type: Evaluation A (Pre-1980)
[8] = Species/Cell Type: Bacillus subtilis (H17 vs M45), Assay Type: Rec-assay, spot test, DNA effects (bacterial DNA repair), Assay Code: REWT, Evaluation Type: Evaluation A (Pre-1980)
[9] = Species/Cell Type: Nonhuman, Evaluation Type: Evaluation A (Pre-1980)
[10] = Species/Cell Type: Vicia faba, Assay Type: Chromosome aberrations, Assay Code: VIC+, Evaluation Type: Evaluation A (Pre-1980)
[11] = Species/Cell Type: Salmonella typhimurium (one or more of the five standard strains: TA98, TA100, TA1535, TA1537, and TA1538), Assay Type: Histidine reverse gene mutation, Ames assay, Assay Code: SAL+*, Activation: With metabolic activation, Evaluation Type: Evaluation A (Pre-1980)
[12] = Species/Cell Type: Allium cepa, Assay Type: Chromosome aberrations, Assay Code: ALC+, Evaluation Type: Evaluation A (Pre-1980)

`O=[N+]([O-])c1ccc2c(c1)Cc1ccccc1-2` was tested, and the mutagenic call (Species/Cell Type: Escherichia coli polA (W3110 vs P3478), Assay Type: Rec-assay, DNA effects (bacterial DNA repair), Assay Code: RE2T, Evaluation Type: Evaluation A (Pre-1980)) was “no conclusion”, the mutagenic call [1] was “active; positive” and the mutagenic call (Species/Cell Type: Mouse, Sex: Male, Assay Type: Sperm morphology, Assay Code: SPI-, Evaluation Type: Evaluation A (Pre-1980)) was “inactive; negative”. The mutagenic call (Species/Cell Type: Neurospora crassa, Assay Type: Aneuploidy, chromosome aberrations, Assay Code: NEN-, Evaluation Type: Evaluation A (Pre-1980)) was “inactive; negative”, the mutagenic call [2] was “active; positive” and the mutagenic call (Species/Cell Type: Nonhuman, Assay Type: Sister-chromatid exchange (SCE) in vivo, Assay Code: SC3+D, Dose Response: With dose response, Evaluation Type: Evaluation B (Post-1980)) was “active; positive”. For the same molecule, the mutagenic call (Species/Cell Type: Saccharomyces cerevisiae, Assay Type: Mitotic recombination or gene conversion, Assay Code: YEH+, Evaluation Type: Evaluation A (Pre-1980)) was “active; positive”, the mutagenic call [3] was “active; positive” and the mutagenic call (Species/Cell Type: Salmonella typhimurium, Assay Type: Forward and reverse gene mutation, host-mediated assay, Assay Code: HMA+, Evaluation Type: Evaluation A (Pre-1980)) was “active; positive”. For the same molecule, the mutagenic call [4] was “active; positive”.
With `O=C1CC[C@@]2(O)[C@H]3Cc4ccc(O)c5c4[C@@]2(CCN3CC2CC2)[C@H]1O5` the mutagenic call [5] was “active; positive”, the mutagenic call (Species/Cell Type: Drosophila melanogaster, Sex: Male, Assay Type: Heritable translocation test, chromosome aberrations, Assay Code: DHT-, Evaluation Type: Evaluation A (Pre-1980)) was “inactive; negative” and the mutagenic call (Species/Cell Type: Human diploid fibroblasts, Assay Type: Unscheduled DNA synthesis (UDS) in vitro, DNA effects, Assay Code: UDH+, Evaluation Type: Evaluation A (Pre-1980)) was “active; positive”. For the same molecule, the mutagenic call [6] was “inactive; negative” and the mutagenic call [7] was “no conclusion”.
With `ClCCNCCNc1c2ccccc2nc2c1ccc1ccccc12` the mutagenic call [3] was “active; positive”.
In the case of `CCN(Cc1cccc(S(=O)(=O)O)c1)c1ccc(C(=C2C=CC(=[N+](CC)Cc3cccc(S(=O)(=O)[O-])c3)C=C2)c2ccccc2)cc1`, the mutagenic call [8] was “no conclusion”.
In the case of `O=C(O)CN(CC(=O)O)CC(=O)O`, the mutagenic call (Species/Cell Type: Drosophila melanogaster, Assay Type: Sex-linked recessive lethal gene mutation, Assay Code: SRL-, Evaluation Type: Evaluation A (Pre-1980)) was “inactive; negative”, the mutagenic call (Species/Cell Type: Mouse, Sex: Male, Assay Type: Heritable translocation test, chromosome aberrations, Assay Code: HTT-, Evaluation Type: Evaluation A (Pre-1980)) was “inactive; negative” and the call [9] was “active; positive”. For the same molecule, the mutagenic call (Species/Cell Type: Nonhuman, Assay Type: Sister-chromatid exchange (SCE) in vitro, Assay Code: SC2T, Evaluation Type: Evaluation B (Post-1980)) was “no conclusion”, the mutagenic call (Species/Cell Type: Salmonella typhimurium (one or more of the five standard strains: TA98, TA100, TA1535, TA1537, and TA1538), Assay Type: Histidine reverse gene mutation, Ames assay, Assay Code: SALT, Evaluation Type: Evaluation B (Post-1980)) was “no conclusion” and the mutagenic call [10] was “active; positive”.
For `CC(C)Oc1cc(-n2nc(C(C)(C)C)oc2=O)c(Cl)cc1Cl`, the mutagenic call [6] was “inactive; negative”.
In the case of `C=COC=C`, the mutagenic call (Species/Cell Type: Nonhuman, Assay Type: Sister-chromatid exchange (SCE) in vitro, Assay Code: SC2+, Evaluation Type: Evaluation B (Post-1980)) was “active; positive”.
For `O=[N+]([O-])c1ccc(N2CCN(c3ccccc3)CC2)c2c1no[n+]2[O-]`, the mutagenic call [3] was “active; positive”.
With `CN=C1CN(O)C(c2ccccc2)=c2cc(Cl)ccc2=N1` the mutagenic call (Species/Cell Type: Mammalian polychromatic erythrocytes, Assay Type: Micronucleus test, chromosome aberrations, Assay Code: MNT+, Evaluation Type: Evaluation B (Post-1980)) was “active; positive”, the mutagenic call (Species/Cell Type: Saccharomyces cerevisiae, Assay Type: Mitotic recombination or gene conversion, Assay Code: YEC-*, Activation: With metabolic activation, Evaluation Type: Evaluation A (Pre-1980)) was “inactive; negative” and the mutagenic call [7] was “no conclusion”. For the same molecule, the mutagenic call (Species/Cell Type: Salmonella typhimurium, Assay Type: Forward and reverse gene mutation, host-mediated assay, Assay Code: HMAT, Evaluation Type: Evaluation A (Pre-1980)) was “no conclusion”.
`CC1(C)CN1` was tested, and the mutagenic call (Species/Cell Type: Schizosaccharomyces pombe, Assay Type: Reverse gene mutation, Assay Code: YEZ+, Evaluation Type: Evaluation A (Pre-1980)) was “active; positive”.
`CC(C)N(C(=O)SCC(Cl)=C(Cl)Cl)C(C)C` was tested, and the mutagenic call [11] was “active; positive”.
For `Cl/C=C(\Cl)C(Cl)Cl`, the mutagenic call [2] was “active; positive”.
`C[C@@H]1C[C@@]2(O[C@H]2C)C(=O)O[C@@H]2CCN3CC=C(COC(=O)[C@]1(C)O)[C@H]23` was tested, and the mutagenic call [12] was “active; positive” and the mutagenic call (Species/Cell Type: Drosophila melanogaster, Assay Type: Sex-linked recessive lethal gene mutation, Assay Code: SRLT, Evaluation Type: Evaluation A (Pre-1980)) was “no conclusion”.
In the case of `CCCCN(CC(O)CC(=O)O)N=O` (stereo not given), the mutagenic call [7] was “no conclusion”.
For `O=NN1CCCCC1`, the mutagenic call (Species/Cell Type: Drosophila melanogaster, Assay Type: Aneuploidy, partial sex chromosome loss, chromosome aberrations, Assay Code: DAPT, Evaluation Type: Evaluation A (Pre-1980)) was “no conclusion”, the mutagenic call (Species/Cell Type: Drosophila melanogaster, Assay Type: Aneuploidy, whole sex chromosome loss, chromosome aberrations, Assay Code: DACT, Evaluation Type: Evaluation A (Pre-1980)) was “no conclusion” and the mutagenic call [5] was “active; positive”. The mutagenic call [1] was “active; positive”, the call [9] was “active; positive” and the mutagenic call (Species/Cell Type: Nonhuman, Assay Type: Sister-chromatid exchange (SCE) in vivo, Assay Code: SC3+, Evaluation Type: Evaluation B (Post-1980)) was “active; positive”. The mutagenic call (Species/Cell Type: Saccharomyces cerevisiae, Assay Type: Forward gene mutation, Assay Code: YEF+*, Activation: With metabolic activation, Evaluation Type: Evaluation A (Pre-1980)) was “active; positive”, the mutagenic call (Species/Cell Type: Saccharomyces cerevisiae, Assay Type: Reverse gene mutation, Assay Code: YER+*, Activation: With metabolic activation, Evaluation Type: Evaluation A (Pre-1980)) was “active; positive” and the mutagenic call [11] was “active; positive”. The mutagenic call [4] was “active; positive”.
With `O=[N+]([O-])c1ccc(-c2nc(NCC(O)CO)c3ccccc3n2)s1` (stereo not given) the mutagenic call [7] was “no conclusion”.
For `NC[C@H]1O[C@H](O[C@H]2[C@H](O)[C@@H](O[C@H]3O[C@H](CO)[C@@H](O)[C@H](N)[C@H]3O)[C@H](N)C[C@@H]2N)[C@H](N)C[C@@H]1O`, the mutagenic call (Species/Cell Type: Saccharomyces cerevisiae, Assay Type: Mitotic recombination or gene conversion, Assay Code: YEH-, Evaluation Type: Evaluation A (Pre-1980)) was “inactive; negative”.
For `S=C=S`, the mutagenic call (Species/Cell Type: Human, Sex: Male, Assay Type: Sperm morphology, Assay Code: SPH+, Evaluation Type: Evaluation A (Pre-1980)) was “active; positive”.
With `OCc1ccco1` the mutagenic call (Species/Cell Type: Human lymphocytes, Assay Type: Sister-chromatid exchange (SCE) in vitro, Assay Code: SCLT, Evaluation Type: Evaluation B (Post-1980)) was “no conclusion” and the mutagenic call (Species/Cell Type: Human, Assay Type: Sister-chromatid exchange (SCE) in vitro, Assay Code: SC1T, Evaluation Type: Evaluation B (Post-1980)) was “no conclusion”.
For `O=[O+][O-]`, the mutagenic call (Species/Cell Type: Human lymphocytes or leukocytes, Assay Type: Chromosome aberrations in vitro, Assay Code: CY7T, Evaluation Type: Evaluation A (Pre-1980)) was “no conclusion”, the mutagenic call (Species/Cell Type: Human lymphocytes or leukocytes, Assay Type: Chromosome aberrations in vivo, Assay Code: CY8T, Evaluation Type: Evaluation A (Pre-1980)) was “no conclusion” and the mutagenic call (Species/Cell Type: Human, Assay Type: Sister-chromatid exchange (SCE) in vitro, Assay Code: SC1+D, Dose Response: With dose response, Evaluation Type: Evaluation B (Post-1980)) was “active; positive”. For the same molecule, the mutagenic call (Species/Cell Type: Mammalian germ cells, Sex: Male, Assay Type: Chromosome aberrations in vivo, Assay Code: CY9T, Evaluation Type: Evaluation A (Pre-1980)) was “no conclusion”, the mutagenic call (Species/Cell Type: Nonhuman bone marrow, Assay Type: Chromosome aberrations, in vivo, Assay Code: CY#-, Evaluation Type: Evaluation A (Pre-1980)) was “inactive; negative” and the mutagenic call (Species/Cell Type: Nonhuman lymphocytes or leukocytes, Assay Type: Chromosome aberrations in vivo, Assay Code: CY%T, Evaluation Type: Evaluation A (Pre-1980)) was “no conclusion”. For the same molecule, the mutagenic call (Species/Cell Type: Nonhuman, Assay Type: Sister-chromatid exchange (SCE) in vivo, Assay Code: SC3-, Evaluation Type: Evaluation A (Pre-1980)) was “inactive; negative”, the mutagenic call (Species/Cell Type: Tradescantia species, Assay Type: Gene mutation, Assay Code: TRM+D, Dose Response: With dose response, Evaluation Type: Evaluation A (Pre-1980)) was “active; positive” and the mutagenic call [10] was “active; positive”.
With `O=C1c2ccccc2C(=O)c2c1ccc(O)c2O` the mutagenic call [12] was “active; positive” and the mutagenic call [8] was “no conclusion”.
With `CC1CN(N=O)CC(C)N1N=O` (stereo not given) the mutagenic call [11] was “active; positive”.
`Oc1cc(Cl)c(-c2cc(Cl)ccc2Cl)cc1Cl` was tested, and the mutagenic call [7] was “no conclusion”.
`BrBr` was tested, and the mutagenic call [12] was “active; positive”.
